Measured values reported in PubChem BioAssay AID463203 (Broad Institute, 2010).
The source made the active and inactive calls.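 Rule for the calls: active = more than half of replicate measurements showing over 20% loss of kinase signal relative to plate controls; inconclusive = some but at most half of replicates over 20% loss; inactive = no replicate over 20% signal loss.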

Molecular target: Glycogen synthase kinase-3 alpha (Homo sapiens) (UniProt P49840)
Test: concentration-response blocking of human GSK3A – biochemical, luminescence, cell-free homogeneous, retest, dose response (AID 463203)
Settings: GSK-3 alpha enzyme, ADP-Glo luminescence, 60 min

Glycogen synthase kinase-3 alpha (Homo sapiens), sequence (P49840 whole entry, looked up): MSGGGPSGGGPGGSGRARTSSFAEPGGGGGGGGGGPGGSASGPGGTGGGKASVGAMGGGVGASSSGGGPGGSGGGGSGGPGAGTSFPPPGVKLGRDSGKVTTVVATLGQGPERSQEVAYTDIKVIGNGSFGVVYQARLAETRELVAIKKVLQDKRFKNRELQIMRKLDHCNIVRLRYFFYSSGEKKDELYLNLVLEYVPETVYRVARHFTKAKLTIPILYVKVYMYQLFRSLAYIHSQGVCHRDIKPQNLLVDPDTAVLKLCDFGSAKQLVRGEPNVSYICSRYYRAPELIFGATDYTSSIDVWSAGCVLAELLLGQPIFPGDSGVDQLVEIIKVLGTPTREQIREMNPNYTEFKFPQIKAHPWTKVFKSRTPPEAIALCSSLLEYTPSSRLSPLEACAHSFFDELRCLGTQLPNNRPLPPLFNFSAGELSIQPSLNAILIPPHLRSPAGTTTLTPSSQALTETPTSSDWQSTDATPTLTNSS

Row | SMILES | AC50
1 | COc1ccc(COC(=O)C2=C(C)NC(=O)NC2c2ccc(OC)c(OC)c2)cc1 (stereo not drawn) | > 30 µM (inactive)
2 | CCOC(=O)c1cc(C(=O)OCC)c2cc(Br)ccc2n1 | > 30 µM (inactive)
3 | O=C(Nc1nccs1)C1CCN(S(=O)(=O)c2cnc[nH]2)CC1 | > 30 µM (inactive)
4 | Cc1cc(OCc2cc(C(=O)O)oc2C)c2c3c(c(=O)oc2c1)CCCC3 | 21.6 µM
5 | COc1ccc(OC)c(/C=N/NC(=O)c2nnn(-c3nonc3N)c2-c2cccs2)c1 | 1.35 µM
6 | COc1c(-c2ccc(O)cc2)oc2cc(O)cc(O)c2c1=O | 6.97 µM
7 | COc1cc(/C=C2/NC(=O)NC2=O)cc(Br)c1OCc1cccc(C(=O)O)c1 | 6.54 µM
8 | CN1/C(=C/C(=S)NC(=O)C2(C)CC2(Cl)Cl)C(C)(C)c2ccccc21 (stereo not drawn) | > 30 µM (inactive)
9 | Cc1ccc(-c2nnc(N3CCN(C(=O)COc4ccccc4)CC3)c3ccccc23)cc1 | > 30 µM (inactive)
10 | COc1ccc(OCc2nc(N)nc(Nc3ccccc3)n2)cc1 | > 30 µM (inactive)
11 | CCOC(=O)c1ccc(N2CSC3=C(C#N)C(c4cccs4)CC(=O)N3C2)cc1 (stereo not drawn) | > 30 µM (inactive)
12 | Cc1ccnc(NC(=O)CN2C(=O)c3ccccc3S2(=O)=O)c1 | > 30 µM (inactive)
13 | Cc1ccc(S(=O)(=O)Nc2cc(Cl)c(O)c3ncccc23)cc1 | > 30 µM (inactive)
14 | c1ccc2c(c1)ccc1nnc(SCc3ccc4c(c3)OCO4)n12 | > 30 µM (inactive)
15 | CC(NC(=O)COc1ccccc1F)C1CC2CCC1C2 (stereo not drawn) | > 30 µM (inactive)
16 | CCOC(=O)/C(C#N)=C/c1cn(CCC(=O)O)nc1-c1cccc(Br)c1 | > 30 µM (inactive)
17 | O=C(c1ccc2c3n(nc2c1)-c1ccccc1CO3)N1CCOCC1 | 18.8 µM
18 | O=C(NCc1ccc(C(=O)N2CCC3(CC2)OCCO3)cc1)c1cccc(Br)c1 | > 30 µM (inactive)
19 | O=C(O)c1ccc(Nc2nc(-c3cccnc3)nc3ccccc23)cc1 | 9.3 µM
20 | C=CCNc1nc(N)c([N+](=O)[O-])c(N2CCCCCC2)n1 | 29.1 µM
21 | Cc1ccc(N=Nc2c(O)ccc3n[nH]nc23)cc1 | 4.23 µM
22 | Nc1nonc1-n1nnc(C(=O)N/N=C/c2cccc(Cl)c2)c1-c1cccs1 | 0.614 µM
23 | O=[N+]([O-])c1ccc(NCCCN2CCOCC2)c2ncccc12 | > 30 µM (inactive)
24 | O=c1[nH]c(=O)n(CCC2=CCCCC2)c(O)c1C=NCCCn1ccnc1 | 28.6 µM
25 | CCOC(=O)c1[nH]c(C)c(C(=O)OCCOc2cccc(C)c2)c1C | > 30 µM (inactive)
26 | O=[N+]([O-])c1ccc(-c2nnc(-c3ccccc3)c(NCCCO)n2)cc1 | > 30 µM (inactive)

Row | SMILES | AC50
27 | CN(C)c1cccc(C(=O)N/N=C/c2ccccc2F)c1 | > 30 µM (inactive)
28 | CC(=O)Oc1cc2c3c(c1)/C(=C1/SC(=S)NC1=O)C(=O)N3C(C)(C)C=C2C | > 30 µM (inactive)
29 | COc1ccc(C(=O)NCC(=O)N/N=C/C(C)=C/c2ccccc2)cc1OC | > 30 µM (inactive)
30 | Cc1cccc(C)c1OCC(O)CNC(C)c1ccccc1 (stereo not drawn) | > 30 µM (inactive)
31 | COc1ccc2ccccc2c1C1CC(=O)N2CN(Cc3ccco3)CSC2=C1C#N (stereo not drawn) | > 30 µM (inactive)
32 | COc1ccc(S(=O)(=O)NCc2ccc(C(=O)N3CCC4(CC3)OCCO4)cc2)cc1 | > 30 µM (inactive)
33 | Cc1ccc(-c2noc(CSc3nnnn3-c3ccccc3)n2)cc1 | > 30 µM (inactive)
34 | COc1cc(C(=O)NCCC(=O)NCCN2CCOCC2)cc(OC)c1OC | > 30 µM (inactive)
35 | Cc1ccc(/C=N/NC(=O)c2nnn(-c3nonc3N)c2CN(C)C2CCCCC2)cc1 | > 30 µM (inactive)
36 | CCC(=O)NC(=S)Nc1cccc(C(C)=O)c1 | > 30 µM (inactive)
37 | C[C@H]1CCCC(=O)CCCCCc2cc(O)cc(O)c2C(=O)O1 | 28.3 µM
38 | COCC(=O)Nc1ccc([N+](=O)[O-])cc1OC | > 30 µM (inactive)
39 | Cc1onc(-c2ccccc2)c1C(=O)NCCN1CCOCC1 | > 30 µM (inactive)
40 | O=C(CSc1ccccc1)Nc1ccc2c(c1)C(=O)NC2=O | 6.21 µM
41 | O=[N+]([O-])c1ccccc1-c1cc(-c2ccccc2O)n[nH]1 | > 30 µM (inactive)
42 | O=C(NCCCn1ccnc1)C(=O)NC1CCCCC1 | > 30 µM (inactive)
43 | CC1(C)CC(NC(=O)COc2ccccc2Cl)CC(C)(C)N1 | > 30 µM (inactive)
44 | CCC(Oc1ccccc1)C(=O)N(C)CC(=O)N(CC(C)C)c1c(N)n(CC(C)C)c(=O)[nH]c1=O (stereo not drawn) | > 30 µM (inactive)
45 | CCOc1cccc(-c2c(C(=O)N/N=C/c3ccoc3)nnn2-c2nonc2N)c1 | 6.81 µM
46 | O=C1OCCC1Sc1nnc(-c2ccc3c(c2)OCO3)o1 (stereo not drawn) | 25.9 µM
47 | CC1=[N+](C)c2ccc3ccccc3c2C1(C)C | > 30 µM (inactive)
48 | CCOC(=O)N1CCC(N2CCN(S(=O)(=O)c3ccc(Cl)cc3)CC2)CC1 | > 30 µM (inactive)
49 | CC1(C)CC(=O)C2=C(C1)Nc1[nH]n(-c3ccccc3)c(=O)c1C2c1ccc2c(c1)OCO2 (stereo not drawn) | > 30 µM (inactive)
50 | C[C@H](CO)N1C[C@H](C)[C@@H](CN(C)S(=O)(=O)c2ccccc2)Oc2c(NC(=O)c3ccncc3)cccc2C1=O | > 30 µM (inactive)
51 | O=S(=O)(O)c1cccc(N=Nc2c(O)ccc3ccccc23)c1 | 8.34 µM
52 | CCCCc1ccc(NC(=O)N[C@@H](CC(C)C)C(=O)O)cc1 | > 10 µM (inactive)

Row | SMILES | AC50
53 | COc1cccc(/C=N/NC(=O)C(=O)N2CCCC2)c1OC | > 30 µM (inactive)
54 | COc1cc(O)cc2c1C(=O)OC(C)CCCC(=O)CCC/C=C\2 (stereo not drawn) | > 30 µM (inactive)
55 | CS(=O)(=O)N1CCN(c2ccccc2NC(=O)c2cccs2)CC1 | > 30 µM (inactive)
56 | O=C(Nc1cccc(-c2cnc3ccccc3n2)c1)c1ccncc1 | > 30 µM (inactive)
57 | Fc1ccccc1-c1nnc2ccc3ccccc3n12 | > 30 µM (inactive)
58 | COc1cc(C2C(C#N)=C(N)Oc3n[nH]c(-c4cccs4)c32)cc(OC)c1O (stereo not drawn) | > 30 µM (inactive)
59 | Cc1ccc(N=Nc2c(O)[nH]c3ccc(F)cc23)cc1 | > 30 µM (inactive)
60 | Clc1ccc(Nc2nc(NCCN3CCOCC3)nc(N3CCOCC3)n2)cc1 | > 30 µM (inactive)
61 | CC(=NCCCn1ccnc1)c1c(O)n(C2CCCCC2)c(=O)[nH]c1=O | 6.77 µM
62 | CCOCCOC(=O)c1[nH]c2c(c1C)C(=O)CC(c1cc(OC)c(OC)c(OC)c1)C2 (stereo not drawn) | > 30 µM (inactive)
63 | Fc1ccccc1/C=N/Nc1ncnc2ccccc12 | > 30 µM (inactive)
64 | COC(=O)[C@@H](NC(=O)NCc1ccccc1Cl)C(C)C | > 30 µM (inactive)
65 | COc1cc(NC(=O)c2cc([N+](=O)[O-])ccc2NC(=O)CNC2CCCCC2)cc(OC)c1 | > 30 µM (inactive)
66 | CCOC(=O)c1nn(-c2ccc(Cl)cc2)c2nc(Nc3ccccc3)cc(=O)n12 | > 30 µM (inactive)
67 | Cc1cc2[nH]c(=S)[nH]c2cc1C | > 30 µM (inactive)
68 | CCC(=O)C1CCCN(C(=O)CCc2nnc(-c3ccc4c(c3)OCO4)o2)C1 (stereo not drawn) | > 30 µM (inactive)
69 | O=C(Nc1ccccc1-c1nnc(SCc2ccc(Cl)cc2)o1)c1ccccc1 | > 30 µM (inactive)
70 | COC(=O)C1CSc2[nH]c(=O)sc2C1c1ccc(O)c(OC)c1 (stereo not drawn) | > 30 µM (inactive)
71 | O=C(c1ccc2c3n(nc2c1)-c1ccc(Cl)cc1CO3)N1CCCCC1 | > 30 µM (inactive)
72 | CCc1ccc(C2CC(c3cccc(Cl)c3)n3nc(N)nc3N2)cc1 (stereo not drawn) | > 30 µM (inactive)
73 | CCCCOC(=O)c1ccc(N/C(=N\S(=O)(=O)c2ccccc2)c2ccccc2)cc1 | > 30 µM (inactive)
74 | CCCCCCCOC(=O)C1=C(C)Nc2ncnn2C1c1cccs1 (stereo not drawn) | > 30 µM (inactive)
75 | CCOc1cc(/C=N/Nc2ncnc(Cl)c2N)ccc1O | 29.6 µM
76 | Cn1c(O)c(C=NCCc2c[nH]c3ccccc23)c(=O)n(C)c1=O | 27.9 µM
77 | COc1cccc(NC(=O)[C@@H]2CCCN2S(=O)(=O)c2cccc3cccnc23)c1 | 18.1 µM
78 | CC(=O)Nc1ccc(NC(=O)CSc2nnc(-c3ccc4c(c3)OCO4)o2)cc1 | 2.61 µM

Row | SMILES | AC50
79 | Nc1n[nH]c2cc(=O)n(-c3ccc(Cl)cc3)nc12 | 18.9 µM
80 | C/C(=N\O)C(=O)NCCCn1ccnc1 | > 30 µM (inactive)
81 | CNC(=O)NCC12CC3CC(CC(C3)C1)C2 | > 30 µM (inactive)
82 | NC(=O)c1ccc(N=C2C(=O)Nc3ccc([N+](=O)[O-])cc32)cc1 | > 30 µM (inactive)
83 | O=c1c(O)cccc2cc(O)c(O)c(O)c12 | 21.1 µM
84 | Clc1ccc(CSc2nncn2-c2ccc3c(c2)OCCO3)cc1 | > 30 µM (inactive)
85 | Nc1c(C(=O)NCc2ccco2)c2nc3ccccc3nc2n1CCN1CCOCC1 | > 30 µM (inactive)
86 | CC(=O)c1cc(-c2ccc(F)cc2)n(CCC(=O)NC(C)(C)C)c1C | > 30 µM (inactive)
87 | Brc1ccccc1C1=Nn2c(nnc2-c2ccccc2)SC1 | > 30 µM (inactive)
88 | O=C(CSc1nnc(SCc2ccccc2Cl)s1)N/N=C/c1ccc(C(=O)O)cc1 | 5.94 µM
89 | CCOc1ccccc1NC(=O)Nc1ccc(Cl)cc1 | > 30 µM (inactive)
90 | NC(=O)c1c(NC(=O)C(=O)N2CCOCC2)sc2c1CCC2 | > 30 µM (inactive)
91 | CCSc1nc(N)c(C#N)c(-c2ccco2)c1C#N | > 30 µM (inactive)
92 | CO/N=C/c1ccc(N2CCCC2)c([N+](=O)[O-])c1 | > 30 µM (inactive)
93 | CN(C)C(=O)Oc1ccc(OC(=O)N(C)C)cc1 | > 30 µM (inactive)
94 | Nc1nc(NCCc2ccccc2)nc(NCc2ccccc2)c1[N+](=O)[O-] | 1.66 µM
95 | Cc1ccc(C(=O)Nc2cccc(-c3cnc4ccccc4n3)c2)cc1 | > 30 µM (inactive)
96 | O=c1cc(-c2ccncc2)oc2c1ccc1ccccc12 | 0.312 µM
97 | CCn1ccc(C(=O)Nc2ccsc2C(=O)OC)n1 | 30.8 µM
98 | COc1ccccc1N1CCN(CCC(=O)Nc2cccc(Cl)c2)CC1 | 19.3 µM
99 | CCCCOc1ccc(CSc2nc(C)[nH]c2[N+](=O)[O-])cc1[N+](=O)[O-] | > 30 µM (inactive)
100 | O=c1[nH]c(=O)n(Cc2ccco2)c(O)c1/C=N/N1CCCCC1 | > 30 µM (inactive)
101 | CCOc1cc(/C=C2\SC(N3CCCCC3)=NC2=O)ccc1O | > 30 µM (inactive)
102 | COc1ccc(COC(=O)C2=C(C)NC(=O)NC2c2cccc(Br)c2)cc1 (stereo not drawn) | 16.9 µM
103 | NC(=O)c1sc2nc3c(c(-c4ccccc4)c2c1N)CCC3 | 13.9 µM
